PubChem BioAssay AID328 (DTP/NCI, 2004)
Where “and” joins values, the source holds several entries; their conditions need not be identical. Equal values may be shown once. Inconclusive results and toxic doses are left out. The calls were made as follows: active = survival T/C of 150% or more; inactive = T/C below 125% in these data.

Test system: BDF1 mice, P388 leukemia ip, median survival T/C
Assay: NCI In Vivo Anticancer Drug Screen. Data for tumor model P388 Leukemia (intraperitoneal) in B6D2F1 (BDF1) mice
Conditions: endpoint: median survival time, higher = longer survival
How it was run: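 Read-out is survival of treated animals expressed relative to the vehicle group, as a T/C ratio.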

[1] = dose: 50.0 mg/kg/injection, schedule: Q01DX009 (ip), vehicle: saline with Tween-80
[2] = dose: 100.0 mg/kg/injection, schedule: Q04DX003 (ip), vehicle: saline with Tween-80
[3] = dose: 200.0 mg/kg/injection, schedule: Q04DX003 (ip), vehicle: saline with Tween-80
[4] = dose: 100.0 mg/kg/injection, schedule: Q01DX009 (ip), vehicle: saline with Tween-80

Measured: T/C

CCOC(=O)CCC(C)(C#N)c1ccccc1 (stereo not given)
inactive: [1] 100 % of control | [2] 95 % of control | [3] 91 % of control | dose: 400.0 mg/kg/injection, schedule: Q04DX003 (ip), vehicle: saline with Tween-80 100 % of control

COc1cc(/C=N\NC(C)=O)cc(OC)c1OC
inactive: dose: 50.0 mg/kg/injection, schedule: Q04DX003 (ip), vehicle: saline with Tween-80 100 % of control | [2] 90 % of control | [3] 90 % of control

COc1cc2c(cc1OC)C(NC(C)=O)N(C)c1c-2ccc2cc3c(cc12)OCO3 (stereo not given)
inactive: dose: 80.0 mg/kg/injection, schedule: Q01DX009 (ip), vehicle: saline 104 % of control | dose: 120.0 mg/kg/injection, schedule: Q01DX009 (ip), vehicle: saline 100 % of control
active: dose: 40.0 mg/kg/injection, schedule: Q01DX009 (ip), vehicle: saline 168 % of control

CC(=O)N1C2=CCCC3CCCCC23c2ccccc21 (stereo not given)
inactive: [1] 88 % of control and 109 % of control | [4] 102 % of control and 104 % of control | dose: 200.0 mg/kg/injection, schedule: Q01DX009 (ip), vehicle: saline with Tween-80 93 % of control | dose: 400.0 mg/kg/injection, schedule: Q01DX009 (ip), vehicle: saline with Tween-80 112 % of control

C/C(=N\NC(=O)CC(=O)N/N=C(\C)c1ccncc1)c1ccncc1
inactive: dose: 75.0 mg/kg/injection, schedule: Q01DX009 (ip), vehicle: saline with Tween-80 99 % of control | dose: 150.0 mg/kg/injection, schedule: Q01DX009 (ip), vehicle: saline with Tween-80 90 % of control | dose: 300.0 mg/kg/injection, schedule: Q01DX009 (ip), vehicle: saline with Tween-80 94 % of control

COc1cc2c(cc1OC)-c1cc3cc(OC)c(OC)cc3c(C)[n+]1CC2
inactive: dose: 12.5 mg/kg/injection, schedule: Q01DX009 (ip), vehicle: Klucel (hydroxypropylcellulose) (HPC) 106 % of control | dose: 25.0 mg/kg/injection, schedule: Q01DX009 (ip), vehicle: Klucel (hydroxypropylcellulose) (HPC) 106 % of control | dose: 50.0 mg/kg/injection, schedule: Q01DX009 (ip), vehicle: Klucel (hydroxypropylcellulose) (HPC) 113 % of control

CCCCCCCCCCCCCCCCS(=O)(=O)NN
inactive: dose: 12.5 mg/kg/injection, schedule: Q01DX009 (ip), vehicle: other 91 % of control | dose: 25.0 mg/kg/injection, schedule: Q01DX009 (ip), vehicle: other 96 % of control | dose: 50.0 mg/kg/injection, schedule: Q01DX009 (ip), vehicle: other 102 % of control

O=C(/C=C/c1ccccc1)c1ccc2c(c1)OCO2
inactive: dose: 50.0 mg/kg/injection, schedule: Q01DX009 (ip), vehicle: water 99 % of control | dose: 50.0 mg/kg/injection, schedule: Q04DX003 (ip), vehicle: water 99 % of control | dose: 100.0 mg/kg/injection, schedule: Q01DX009 (ip), vehicle: water 108 % of control | dose: 100.0 mg/kg/injection, schedule: Q04DX003 (ip), vehicle: water 94 % of control | dose: 200.0 mg/kg/injection, schedule: Q01DX009 (ip), vehicle: water 101 % of control | dose: 200.0 mg/kg/injection, schedule: Q04DX003 (ip), vehicle: water 103 % of control | dose: 400.0 mg/kg/injection, schedule: Q01DX009 (ip), vehicle: water 108 % of control | dose: 400.0 mg/kg/injection, schedule: Q04DX003 (ip), vehicle: water 94 % of control

CC(Br)C1(c2cccc([N+](=O)[O-])c2)OCCO1 (stereo not given)
inactive: dose: 25.0 mg/kg/injection, schedule: Q01DX001 (ip), vehicle: Klucel (hydroxypropylcellulose) (HPC) 100 % of control | dose: 50.0 mg/kg/injection, schedule: Q01DX001 (ip), vehicle: Klucel (hydroxypropylcellulose) (HPC) 104 % of control | dose: 100.0 mg/kg/injection, schedule: Q01DX001 (ip), vehicle: Klucel (hydroxypropylcellulose) (HPC) 90 % of control and 100 % of control

CN(C)c1ccc(/C=C/c2ccnc3ccccc23)cc1
inactive: dose: 5.0 mg/kg/injection, schedule: Q01DX010 (ip), vehicle: saline 95 % of control and 100 % of control | dose: 9.0 mg/kg/injection, schedule: Q01DX010 (ip), vehicle: saline 100 % of control | dose: 10.0 mg/kg/injection, schedule: Q01DX010 (ip), vehicle: saline 95 % of control and 100 % of control | dose: 18.0 mg/kg/injection, schedule: Q01DX010 (ip), vehicle: saline 109 % of control | dose: 20.0 mg/kg/injection, schedule: Q01DX010 (ip), vehicle: saline 90 % of control and 100 % of control | dose: 35.0 mg/kg/injection, schedule: Q01DX010 (ip), vehicle: saline 109 % of control | dose: 40.0 mg/kg/injection, schedule: Q01DX010 (ip), vehicle: saline 100 % of control

CCCCOCN(CCCc1ccccc1)COCCCC
inactive: [4] 121 % of control

Cn1ncc2cncnc21
inactive: dose: 100.0 mg/kg/injection, schedule: Q04DX003 (ip), vehicle: alcohol 113 % of control | dose: 200.0 mg/kg/injection, schedule: Q04DX003 (ip), vehicle: alcohol 95 % of control | dose: 400.0 mg/kg/injection, schedule: Q04DX003 (ip), vehicle: alcohol 100 % of control
